Biological target: T1, Cytochrome P450 11B2, mitochondrial (Homo sapiens, UniProt P19099)
T1 sequence (P19099 whole entry): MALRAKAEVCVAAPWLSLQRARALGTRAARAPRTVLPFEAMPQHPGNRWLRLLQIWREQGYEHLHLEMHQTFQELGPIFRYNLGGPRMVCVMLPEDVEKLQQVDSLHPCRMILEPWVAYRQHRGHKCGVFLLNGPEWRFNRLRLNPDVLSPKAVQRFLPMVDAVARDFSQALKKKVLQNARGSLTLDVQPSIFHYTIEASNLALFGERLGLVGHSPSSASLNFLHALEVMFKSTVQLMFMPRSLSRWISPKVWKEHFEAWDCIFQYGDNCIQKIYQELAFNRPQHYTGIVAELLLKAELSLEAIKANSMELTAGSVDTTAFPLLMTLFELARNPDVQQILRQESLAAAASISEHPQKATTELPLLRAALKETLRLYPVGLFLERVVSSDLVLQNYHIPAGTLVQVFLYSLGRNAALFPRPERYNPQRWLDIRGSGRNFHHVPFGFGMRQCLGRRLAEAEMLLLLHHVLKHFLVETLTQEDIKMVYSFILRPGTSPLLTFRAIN
Test: Inhibition of CYP11B2 (unknown origin)

Row | IC50 [nM] | SMILES
1 | 172 | Fc1cc(-c2cccnc2)cc2c1-n1cnnc1CC2
2 | 244 | Fc1cc2c(cc1-c1cccnc1)CCc1nncn1-2
3 | 131 | Cc1nnc2n1-c1cc(F)c(-c3cccnc3)cc1CC2
4 | 63 | Cc1nnc2n1-c1c(F)cc(-c3cccnc3)cc1CC2

From BindingDB's records for doi:10.1016/j.bmcl.2019.06.040 (Shenyang Pharmaceutical University, 2019)
